In US8609173B2, “Compositions comprising sweetness enhancers and methods of making them” (Senomyx Inc., priority 2008, dated 2013):

What was measured:
Assay type in all cases: in vivo, Human
External panelists [1] = assay: Line scale (15-point sucrose equivalence) sensory test, Example 3A/3C, sucrose or LSB, pH 7.1; set-up: key to Average Sweetness / Average Bitterness: 15-point scale: 0 = 0% sucrose to 15 = 15% sucrose; references = 5
Procedure: (§1) Several types of sensory tests were used to determine the efficacy of 5-(neopentyloxy)-1H-benzo[c][1,2,6]thiadiazin-4-amino-2,2-dioxide in enhancing sweetness of sucrose. Two types of tests were conducted: • 1) Sensory scaling tests were performed using a 15-point percent sucrose equivalence scale for sweetness in order to evaluate sweetness enhancement 5-(neopentyloxy)-1H-benzo[c][1,2,6]thiadiazin-4-amino-2,2-dioxide in sucrose, or in fructose. • 2) Paired comparison tests (2-alternative forced choice difference tests) were used to determine sweetness equivalence for solutions of sucrose vs. 5-(neopentyloxy)-1H-benzo[c][1,2,6]thiadiazin-4-amino-2,2-dioxide or buffer vs. 5-(neopentyloxy)-1H-benzo[c][1,2,6]thiadiazin-4-amino-2,2-dioxide. Stimuli:
Tests were performed with sucrose or fructose. Sweetener was evaluated with and/or without 5-(neopentyloxy)-1H-benzo[c][1,2,6]thiadiazin-4-amino-2,2-dioxide at the appropriate concentration(s).
5-(Neopentyloxy)-1H-benzo[c][1,2,6]thiadiazin-4-amino-2,2-dioxide was prepared as a concentrated stock solution in ethanol to ensure dissolution of the compound. Therefore, all taste solutions contained 0.1% ethanol final concentration. Samples without compound also contained 0.1% ethanol. Low sodium phosphate buffer consists of 0.3 mM KCl, 0.5 mM Na2HPO4, and 0.175 mM KH2PO4.
In scaling test situations, the samples were rated on a 15-point scale for sweetness, ranging from 0=0% sucrose to 15=15% sucrose. To evaluate attributes other than sweetness, references are used for training and are prepared according to the table below. Note that each reference was given a score of 5 on the 15-point scale.
External panelists were used for the tests. The exact number of panelists is reported with test results. Subjects were instructed not to eat or drink anything (except water) for at least 1 hour prior to the test.
Panelists rinsed their mouths with water prior to starting any test. Samples were presented to panelists in a randomized, counterbalanced order. Panelists rinsed with water and had up to a 1 minute delay to clear the mouth of any tastes after each evaluation. Two replicates of each test were performed, unless otherwise noted.

Panelists [2] = assay: Paired comparison taste test, flavored water
Procedure: Two sweetened water solutions were prepared and compared: Flavored Water with 9% Sucrose vs. Flavored Water with 6% Sucrose+2.3 ppm (6.49 μM) of 5-(neopentyloxy)-1H-benzo[c][1,2,6]thiadiazin-4-amino-2,2-dioxide.
Mixing procedures: Dissolve acid into the water using a Lightnin® blender, mix for 5 minutes. Add sugar and continue to mix until dissolved. Add flavors last. Dissolve Compound A into a 0.50% propylene glycol mixture, add last and mix for another 5 minutes. Procedure:
(§2) Panelists evaluated two sweetened water solutions in a paired comparison taste test procedure and were instructed to select the sweeter of the two samples. They perform a total of three paired comparison tests each containing the following samples: Flavored Water with 9% Sucrose vs. Flavored Water with 6% Sucrose+2.3 ppm (6.49 μM) 5-(neopentyloxy)-1H-benzo[c][1,2,6]thiadiazin-4-amino-2,2-dioxide.
Two sweetened water solutions were prepared and compared: Flavored Water with 9% Sucrose vs. Flavored Water with 6% Sucrose+2.44 ppm (6.49 μM) of 3-(4-amino-2,2-dioxide-1H-benzo[c][1,2,6]thiadiazin-5-yloxy)-2′,2′-dimethyl-N-propylpropanamide.
as §2, with “Sucrose+2.44” for “Sucrose+2.3”, “3-(4-amino-2,2-dioxide-1H-benzo[c][1,2,6]thiadiazin-5-yloxy)-2′,2′-dimethyl-N-propylpropanamide.” for “5-(neopentyloxy)-1H-benzo[c][1,2,6]thiadiazin-4-amino-2,2-dioxide.”

Panelists [3] = assay: Paired comparison taste test, Example 7, sucrose or fructose solutions; details: vs 6% Fructose + 25 μM compound, N = 25
Procedure: as §1, with “3-(4-amino-2,2-dioxide-1H-benzo[c][1,2,6]thiadiazin-5-yloxy)-2′,2′-dimethyl-N-propylpropanamide 3-(4-amino-2,2-dioxide-1H-benzo[c][1,2,6]thiadiazin-5-yloxy)-2′,2′-dimethyl-N-propylpropanamide” for “5-(neopentyloxy)-1H-benzo[c][1,2,6]thiadiazin-4-amino-2,2-dioxide”, “enhancing the” for “enhancing”, “sucrose” for “sucrose,”, “3-(4-amino-2,2-dioxide-1H-benzo[c][1,2,6]thiadiazin-5-yloxy)-2′,2′-dimethyl-N-propylpropanamide 3-(4-amino-2,2-dioxide-1H-benzo[c][1,2,6]thiadiazin-5-yloxy)-2′,2′-dimethyl-N-propylpropanamide.” for “5-(neopentyloxy)-1H-benzo[c][1,2,6]thiadiazin-4-amino-2,2-dioxide.”
Panelists evaluated two solutions in a paired comparison taste test procedure. They were instructed to select the sweeter of the two samples. They were also asked to comment on how difficult it was to tell the difference in sweetness between both samples and if any off tastes were perceived.
Panelists evaluated two solutions in a paired comparison taste test procedure and were instructed to select the sweeter of the two samples.

External panelists [4] = assay: Line scale sensory test, Example 6, fructose as sweetener, pH 7.1; set-up: Average Sweetness / Average Bitterness: scale not given here
Procedure: Sensory evaluations were performed using fructose as the sweetener and 3-(4-amino-2,2-dioxide-1H-benzo[c][1,2,6]thiadiazin-5-yloxy)-2′,2′-dimethyl-N-propylpropanamide as the sweetness enhancer, using methods similar to those using sucrose, above. […]

[5] = 6% Sucrose + 25 μM compound, pH 7.1, n = 32

CC(C)(C)COc1cccc2c1C(N)=NS(=O)(=O)N2 [5-(neopentyloxy)-1H-benzo[c][1,2,6]thiadiazin-4-amino-2,2-dioxide]
off tastes (External panelists [1]; 35.3 μM (10 ppm) compound in LSB or 6% sucrose): no significant off tastes
Average Bitterness (External panelists [1]; [5]): 0.3
Average Sweetness (External panelists [1]; [5]): 8.7
Average Bitterness (External panelists [1]; 6% Sucrose + 35.3 μM (10 ppm) compound, n = 14): 0.6
Sweetness vs sucrose solutions (conclusion) (External panelists [1]; 6% Sucrose + 35.3 μM (10 ppm) compound, p>0.10): not significantly different in sweetness from 8%, 9%, 10% sucrose
Average Sweetness (External panelists [1]; 6% Sucrose + 35.3 μM (10 ppm) compound, pH 7.1, n = 14): 9.3
Sweetness vs sucrose solutions (conclusion) (External panelists [1]; 6% sucrose + 25 μM compound): not significantly different in sweetness properties compared to 9% and 10% sucrose solutions
off tastes (External panelists [1]; 6% sucrose + 25 μM compound): No significant off tastes
Average Bitterness (External panelists [1]; LSB + 35.3 μM (10 ppm) compound, no sucrose, n = 14): 0.3
Average Sweetness (External panelists [1]; LSB + 35.3 μM (10 ppm) compound, no sucrose, pH 7.1, n = 14): 0.2
Sweetness vs sucrose solutions (conclusion) (External panelists [1]; LSB + 35.3 μM (10 ppm) compound, p>0.10): not significantly different in sweetness than 0% sucrose
Sample selected as sweeter by panelists, Total (Panelists [2]; Flavored Water with 6% Sucrose + 2.3 ppm (6.49 μM) compound chosen, vs 9% Sucrose, n = 45): 23
Sweetness comparison (conclusion) (Panelists [2]; Flavored Water with 6% Sucrose + 2.3 ppm (6.49 μM) compound vs 9% Sucrose, p>0.10): not significantly different in sweetness

O=C(CO)[C@@H](O)[C@H](O)[C@H](O)CO [Fructose, fructose]
Sample selected as sweeter by panelists, Test 1 (Panelists [3]; 6% Fructose chosen): 5
Sample selected as more sweet by panelists, Test 1 (Panelists [3]; 7% Fructose chosen): 13
Average Sweetness (External panelists [4]; 2% Fructose, Table 29, n = 30): 2.2
Average Bitterness (External panelists [4]; 2% Fructose, Table 30, n = 30): 0.4
Average Sweetness (External panelists [4]; 4% Fructose, Table 29, n = 30): 4.5
Average Bitterness (External panelists [4]; 4% Fructose, Table 30, n = 30): 0.5
Average Sweetness (External panelists [4]; 6% Fructose, Table 29, n = 30): 5.9
Average Bitterness (External panelists [4]; 6% Fructose, Table 30, n = 30): 0.4
Average Sweetness (External panelists [4]; 6% Fructose, Table 31, n = 14): 7.1
Average Bitterness (External panelists [4]; 6% Fructose, Table 32, n = 14): 0.7
Average Sweetness (External panelists [4]; 6% Fructose, Table 33, n = 26): 6.9
Average Bitterness (External panelists [4]; 6% Fructose, Table 34, n = 26): 0.2
Average Sweetness (External panelists [4]; 8% Fructose, Table 31, n = 14): 8.3
Average Bitterness (External panelists [4]; 8% Fructose, Table 32, n = 14): 0.3
Average Sweetness (External panelists [4]; 8% Fructose, Table 33, n = 26): 8.6
Average Bitterness (External panelists [4]; 8% Fructose, Table 34, n = 26): 0.3
Average Sweetness (External panelists [4]; 9% Fructose, Table 31, n = 14): 9.4
Average Bitterness (External panelists [4]; 9% Fructose, Table 32, n = 14): 0.3
Average Sweetness (External panelists [4]; 9% Fructose, Table 33, n = 26): 9.3
Average Bitterness (External panelists [4]; 9% Fructose, Table 34, n = 26): 0.1
Average Sweetness (External panelists [4]; 10% Fructose, Table 31, n = 14): 11.1
Average Bitterness (External panelists [4]; 10% Fructose, Table 32, n = 14): 0.2
Average Sweetness (External panelists [4]; 10% Fructose, Table 33, n = 26): 9.5
Average Bitterness (External panelists [4]; 10% Fructose, Table 34, n = 26): 0.1
